We go through 1 molecule from ChEMBL document CHEMBL3860026, “Depsidones from Lichens as Natural Product Inhibitors of M-Phase Phosphoprotein 1, a Human Kinesin Required for Cytokinesis” (J Nat Prod, 2016).

Structures are written as SMILES. Calls of active or inactive are those of the source. The rule behind the calls is not given here.

Data set [1] can be described thus: Cytotoxicity against human K562 cells assessed as growth inhibition after 72 hrs by Alamar Blue assay. The format is functional, cell-based. The note with it: K562, 72 h. Background: The colour change of resazurin is a common sign of viable cells or microbes.
Data set [2] deals with T1, Kinesin-like protein KIF20B (Homo sapiens, UniProt Q96Q89). The note with it: 1 to 20 uM.
For data set [3], the target named is T1, Kinesin-like protein KIF20B. The data set is described as follows: Inhibition of basal ATPase activity of N-terminal His6-tagged/SUMO-fused human MPP1 motor domain (57 to 491 residues) expressed in Escherichia coli BL21 CodonPlus by pyruvate kinase/lactate dehydrogenase-linked assay.
The target is the same in data set [4]. The note with it: 1 to 20 uM. The source holds these as a separate data set.
In data set [5] the target is T2, Chromosome-associated kinesin KIF4A (Homo sapiens) (UniProt O95239).
T2 sequence (whole entry): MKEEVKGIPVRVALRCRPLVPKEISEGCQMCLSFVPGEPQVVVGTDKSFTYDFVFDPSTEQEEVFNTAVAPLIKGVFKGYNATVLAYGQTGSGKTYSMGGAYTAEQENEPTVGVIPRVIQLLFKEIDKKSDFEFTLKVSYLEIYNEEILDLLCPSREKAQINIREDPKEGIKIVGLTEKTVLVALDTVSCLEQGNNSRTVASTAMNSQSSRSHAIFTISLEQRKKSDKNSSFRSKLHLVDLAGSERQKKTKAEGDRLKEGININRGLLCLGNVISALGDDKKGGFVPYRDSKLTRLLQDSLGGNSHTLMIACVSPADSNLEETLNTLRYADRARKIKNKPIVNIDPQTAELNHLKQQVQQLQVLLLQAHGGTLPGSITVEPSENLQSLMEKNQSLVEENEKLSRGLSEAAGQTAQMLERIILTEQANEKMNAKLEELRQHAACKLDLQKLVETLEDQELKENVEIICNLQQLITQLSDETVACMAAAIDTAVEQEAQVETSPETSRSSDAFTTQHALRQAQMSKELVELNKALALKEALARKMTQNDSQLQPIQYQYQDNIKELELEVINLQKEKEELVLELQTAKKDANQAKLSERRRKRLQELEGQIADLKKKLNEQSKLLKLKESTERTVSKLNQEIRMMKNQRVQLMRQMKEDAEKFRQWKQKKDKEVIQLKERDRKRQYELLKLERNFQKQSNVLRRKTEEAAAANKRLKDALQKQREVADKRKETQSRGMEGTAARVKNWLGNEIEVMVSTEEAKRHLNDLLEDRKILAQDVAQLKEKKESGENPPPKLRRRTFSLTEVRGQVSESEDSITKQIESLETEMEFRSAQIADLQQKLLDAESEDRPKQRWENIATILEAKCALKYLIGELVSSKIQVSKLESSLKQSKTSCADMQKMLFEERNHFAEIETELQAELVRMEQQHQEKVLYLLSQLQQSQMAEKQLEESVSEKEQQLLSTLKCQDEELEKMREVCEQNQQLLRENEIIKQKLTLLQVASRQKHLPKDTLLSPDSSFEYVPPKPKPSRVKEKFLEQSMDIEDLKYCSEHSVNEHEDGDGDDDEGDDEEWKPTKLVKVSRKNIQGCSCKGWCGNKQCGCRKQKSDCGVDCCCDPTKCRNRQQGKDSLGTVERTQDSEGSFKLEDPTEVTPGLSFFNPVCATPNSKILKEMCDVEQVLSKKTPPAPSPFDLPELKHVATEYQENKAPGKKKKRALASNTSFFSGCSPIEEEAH
The data set is described as follows: Inhibition of microtubule-stimulated ATPase activity of human Kif4A at 200 uM by pyruvate kinase/lactate dehydrogenase-linked assay.

Data set [6] in a line: Passive permeability of the compound assessed as compound recovery at 10 uM after 5 hrs by PAMPA. The conditions noted are these: read-out: Drug recovery. Format: ADME. (The PAMPA barrier holds no transporters, so it reflects passive diffusion.)
Data set [7] addresses Centromere-associated protein E (Homo sapiens, UniProt Q02224). Kind of data set: Inhibition of microtubule-stimulated ATPase activity of human CENP-E by pyruvate kinase/lactate dehydrogenase-linked assay.
The target in data set [8] is T1, Kinesin-like protein KIF20B. Kind of data set: Inhibition of basal ATPase activity of N-terminal His6-tagged/SUMO-fused human MPP1 motor domain (2 to 477 residues) expressed in Escherichia coli BL21 CodonPlus in presence of 0.1% Tween-20 by pyruvate kinase/lactate dehydrogenase-linked assay.
Data set [9] deals with T3, Kinesin-like protein KIF3B (Homo sapiens) (UniProt O15066).
T3 sequence (whole entry): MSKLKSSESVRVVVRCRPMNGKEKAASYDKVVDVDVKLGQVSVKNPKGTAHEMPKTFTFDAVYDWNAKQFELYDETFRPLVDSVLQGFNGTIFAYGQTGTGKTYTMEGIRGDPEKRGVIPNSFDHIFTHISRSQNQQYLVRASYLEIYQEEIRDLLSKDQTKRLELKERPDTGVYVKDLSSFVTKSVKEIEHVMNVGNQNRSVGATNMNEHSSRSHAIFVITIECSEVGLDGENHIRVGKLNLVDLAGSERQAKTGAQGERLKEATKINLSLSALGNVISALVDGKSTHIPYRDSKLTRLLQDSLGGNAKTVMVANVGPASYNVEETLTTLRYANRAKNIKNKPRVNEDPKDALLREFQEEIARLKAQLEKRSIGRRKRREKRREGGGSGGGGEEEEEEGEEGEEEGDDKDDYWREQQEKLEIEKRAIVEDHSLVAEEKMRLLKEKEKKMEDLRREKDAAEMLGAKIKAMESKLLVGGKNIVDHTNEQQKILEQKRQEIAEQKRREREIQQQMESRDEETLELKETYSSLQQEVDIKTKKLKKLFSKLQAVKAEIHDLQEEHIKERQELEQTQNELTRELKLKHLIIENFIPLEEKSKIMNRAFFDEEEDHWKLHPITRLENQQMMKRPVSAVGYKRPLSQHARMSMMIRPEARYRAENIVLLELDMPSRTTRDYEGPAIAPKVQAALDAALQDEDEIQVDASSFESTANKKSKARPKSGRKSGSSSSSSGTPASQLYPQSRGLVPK
The data set is described as follows: Inhibition of microtubule-stimulated ATPase activity of human Kif3B at 200 uM by pyruvate kinase/lactate dehydrogenase-linked assay.

Data set [10] is described as follows: Half life in mouse liver microsomes at 3 uM by LC-MS/MS method. The format is ADME. A general note: Microsomes from liver hold many membrane-bound enzymes, among them those of drug oxidation.
In data set [11] the target is T1, Kinesin-like protein KIF20B. Kind of data set: Inhibition of microtubule-stimulated ATPase activity of N-terminal His6-tagged/SUMO-fused human MPP1 motor domain (2 to 477 residues) expressed in Escherichia coli BL21 CodonPlus by pyruvate kinase/lactate dehydrogenase-linked assay.
In data set [12] the target is T2, Chromosome-associated kinesin KIF4A (Homo sapiens). The data set is described as follows: Inhibition of basal ATPase activity of human Kif4A at 200 uM by pyruvate kinase/lactate dehydrogenase-linked assay.
Data set [13] concerns the target T1, Kinesin-like protein KIF20B. The conditions noted are these: 1 to 20 uM. This is another data set of the same source.

T1 sequence (Q96Q89 whole entry, the tested form may be a part): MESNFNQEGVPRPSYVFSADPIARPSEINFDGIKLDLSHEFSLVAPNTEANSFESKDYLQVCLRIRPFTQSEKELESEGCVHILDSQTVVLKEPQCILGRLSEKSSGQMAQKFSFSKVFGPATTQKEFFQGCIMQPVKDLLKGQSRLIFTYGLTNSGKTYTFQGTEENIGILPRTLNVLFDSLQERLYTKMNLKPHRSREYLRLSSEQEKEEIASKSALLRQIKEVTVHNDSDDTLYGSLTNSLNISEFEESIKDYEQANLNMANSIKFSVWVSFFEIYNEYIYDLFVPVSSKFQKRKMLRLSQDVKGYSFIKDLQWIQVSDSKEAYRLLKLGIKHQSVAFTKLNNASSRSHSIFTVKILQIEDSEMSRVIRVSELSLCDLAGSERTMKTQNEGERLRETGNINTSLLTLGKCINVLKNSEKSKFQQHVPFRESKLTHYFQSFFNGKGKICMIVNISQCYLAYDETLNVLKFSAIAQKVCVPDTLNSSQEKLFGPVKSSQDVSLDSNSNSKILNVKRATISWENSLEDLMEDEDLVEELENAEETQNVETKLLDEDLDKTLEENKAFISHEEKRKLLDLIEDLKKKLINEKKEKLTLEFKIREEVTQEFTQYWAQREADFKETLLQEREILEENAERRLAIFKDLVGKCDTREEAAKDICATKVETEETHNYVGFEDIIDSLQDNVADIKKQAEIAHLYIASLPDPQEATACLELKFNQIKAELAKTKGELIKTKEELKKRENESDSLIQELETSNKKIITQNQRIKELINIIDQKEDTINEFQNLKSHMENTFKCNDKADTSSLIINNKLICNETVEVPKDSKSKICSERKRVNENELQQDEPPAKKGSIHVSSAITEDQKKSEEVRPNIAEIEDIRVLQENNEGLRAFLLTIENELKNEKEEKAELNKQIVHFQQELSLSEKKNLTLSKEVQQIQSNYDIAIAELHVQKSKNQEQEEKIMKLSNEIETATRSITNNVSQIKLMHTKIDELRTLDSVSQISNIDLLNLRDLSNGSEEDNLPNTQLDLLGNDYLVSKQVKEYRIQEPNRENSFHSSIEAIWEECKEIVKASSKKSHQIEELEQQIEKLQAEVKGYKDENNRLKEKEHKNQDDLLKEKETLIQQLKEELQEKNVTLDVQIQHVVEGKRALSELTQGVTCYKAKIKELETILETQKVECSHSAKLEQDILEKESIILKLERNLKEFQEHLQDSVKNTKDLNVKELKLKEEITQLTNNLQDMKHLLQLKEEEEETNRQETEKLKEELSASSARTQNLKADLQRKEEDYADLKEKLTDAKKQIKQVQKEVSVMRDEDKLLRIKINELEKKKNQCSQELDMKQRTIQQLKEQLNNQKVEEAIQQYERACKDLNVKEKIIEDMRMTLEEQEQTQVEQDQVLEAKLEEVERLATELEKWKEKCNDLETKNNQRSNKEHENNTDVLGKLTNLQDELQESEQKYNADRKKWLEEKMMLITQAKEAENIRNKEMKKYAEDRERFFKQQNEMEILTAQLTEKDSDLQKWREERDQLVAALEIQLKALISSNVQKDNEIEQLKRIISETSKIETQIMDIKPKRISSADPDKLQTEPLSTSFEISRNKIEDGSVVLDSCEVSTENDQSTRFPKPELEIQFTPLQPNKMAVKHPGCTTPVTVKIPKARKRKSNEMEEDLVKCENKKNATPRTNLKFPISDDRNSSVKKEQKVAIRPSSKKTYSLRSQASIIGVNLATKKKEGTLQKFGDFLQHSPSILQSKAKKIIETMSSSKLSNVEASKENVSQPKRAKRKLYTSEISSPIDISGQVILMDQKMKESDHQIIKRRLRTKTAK
Chain of Centromere-associated protein E (Q02224 whole entry, the tested form may be a part): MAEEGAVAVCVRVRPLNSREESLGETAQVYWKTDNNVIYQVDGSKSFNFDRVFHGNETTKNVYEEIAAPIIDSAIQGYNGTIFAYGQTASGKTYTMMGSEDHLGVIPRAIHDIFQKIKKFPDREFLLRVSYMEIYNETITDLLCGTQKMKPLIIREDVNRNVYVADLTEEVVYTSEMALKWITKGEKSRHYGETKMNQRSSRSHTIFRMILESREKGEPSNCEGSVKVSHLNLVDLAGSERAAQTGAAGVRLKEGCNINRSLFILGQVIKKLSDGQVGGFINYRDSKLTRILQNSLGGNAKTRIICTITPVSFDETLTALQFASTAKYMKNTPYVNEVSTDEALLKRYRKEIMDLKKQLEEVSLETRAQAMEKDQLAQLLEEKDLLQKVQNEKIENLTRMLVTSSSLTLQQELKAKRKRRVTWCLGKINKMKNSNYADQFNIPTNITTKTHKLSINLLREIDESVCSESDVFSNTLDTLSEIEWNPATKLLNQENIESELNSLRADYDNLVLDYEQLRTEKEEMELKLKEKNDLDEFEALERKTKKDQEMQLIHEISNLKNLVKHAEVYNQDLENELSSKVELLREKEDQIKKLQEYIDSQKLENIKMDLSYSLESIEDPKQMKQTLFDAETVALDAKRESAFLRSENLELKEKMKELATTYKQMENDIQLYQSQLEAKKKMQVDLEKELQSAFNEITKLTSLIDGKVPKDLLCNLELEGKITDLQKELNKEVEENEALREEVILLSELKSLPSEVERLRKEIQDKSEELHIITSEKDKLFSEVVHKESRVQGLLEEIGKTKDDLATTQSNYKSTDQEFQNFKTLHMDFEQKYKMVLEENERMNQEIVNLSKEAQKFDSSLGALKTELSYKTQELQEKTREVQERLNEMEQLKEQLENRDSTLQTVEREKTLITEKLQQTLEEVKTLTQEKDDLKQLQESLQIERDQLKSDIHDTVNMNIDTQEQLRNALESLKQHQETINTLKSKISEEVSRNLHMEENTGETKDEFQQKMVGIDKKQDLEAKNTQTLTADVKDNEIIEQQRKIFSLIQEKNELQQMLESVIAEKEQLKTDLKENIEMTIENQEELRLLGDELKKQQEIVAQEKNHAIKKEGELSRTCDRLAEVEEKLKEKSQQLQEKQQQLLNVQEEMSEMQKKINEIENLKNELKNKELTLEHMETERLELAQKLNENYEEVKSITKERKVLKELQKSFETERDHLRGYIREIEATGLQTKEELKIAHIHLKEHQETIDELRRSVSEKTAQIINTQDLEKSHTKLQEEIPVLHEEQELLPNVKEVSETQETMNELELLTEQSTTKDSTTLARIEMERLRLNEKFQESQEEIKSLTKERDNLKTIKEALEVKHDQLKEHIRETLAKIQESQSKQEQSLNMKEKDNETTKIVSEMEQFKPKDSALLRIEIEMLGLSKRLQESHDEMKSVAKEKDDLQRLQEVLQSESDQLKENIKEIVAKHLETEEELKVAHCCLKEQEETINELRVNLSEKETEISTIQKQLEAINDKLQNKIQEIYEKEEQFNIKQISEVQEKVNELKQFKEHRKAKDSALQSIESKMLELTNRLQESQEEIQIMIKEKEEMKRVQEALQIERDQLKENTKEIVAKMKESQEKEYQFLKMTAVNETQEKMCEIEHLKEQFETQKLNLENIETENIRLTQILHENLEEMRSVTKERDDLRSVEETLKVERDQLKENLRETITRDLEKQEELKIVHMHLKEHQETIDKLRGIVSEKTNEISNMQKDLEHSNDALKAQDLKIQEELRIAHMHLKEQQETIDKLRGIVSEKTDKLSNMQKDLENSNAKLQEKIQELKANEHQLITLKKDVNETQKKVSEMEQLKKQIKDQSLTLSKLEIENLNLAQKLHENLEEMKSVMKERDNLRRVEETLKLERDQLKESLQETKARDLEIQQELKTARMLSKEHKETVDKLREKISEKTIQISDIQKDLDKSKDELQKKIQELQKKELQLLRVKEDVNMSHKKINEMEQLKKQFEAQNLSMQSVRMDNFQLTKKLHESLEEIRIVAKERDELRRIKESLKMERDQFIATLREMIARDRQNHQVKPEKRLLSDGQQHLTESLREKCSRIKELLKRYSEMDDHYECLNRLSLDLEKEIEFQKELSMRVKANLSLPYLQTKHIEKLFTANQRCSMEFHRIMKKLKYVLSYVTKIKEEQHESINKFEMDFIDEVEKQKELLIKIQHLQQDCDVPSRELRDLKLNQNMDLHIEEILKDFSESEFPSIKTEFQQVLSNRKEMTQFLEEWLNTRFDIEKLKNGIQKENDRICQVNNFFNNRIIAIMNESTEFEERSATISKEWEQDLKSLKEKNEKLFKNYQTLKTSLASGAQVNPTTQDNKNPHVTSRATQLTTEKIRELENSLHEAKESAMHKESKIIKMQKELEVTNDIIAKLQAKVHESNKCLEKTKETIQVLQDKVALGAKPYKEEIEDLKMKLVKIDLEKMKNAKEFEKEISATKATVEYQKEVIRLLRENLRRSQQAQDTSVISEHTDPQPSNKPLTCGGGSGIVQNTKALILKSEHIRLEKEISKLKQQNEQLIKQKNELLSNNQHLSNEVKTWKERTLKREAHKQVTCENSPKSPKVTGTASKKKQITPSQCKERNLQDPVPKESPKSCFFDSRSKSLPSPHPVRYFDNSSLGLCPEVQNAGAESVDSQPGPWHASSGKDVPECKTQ

For `CCCCCC(=O)Cc1cc(O)cc2c1C(=O)Oc1cc(O)c(C(=O)O)c(CCCCC)c1O2` [PHYSODIC ACID], the EC50 in data set [1] came to 32.6 µM. For the same molecule, the inhibition entry in data set [2], in [4], in data set [8] and in [13] was “Active” each time. The IC50 in data set [3] was 9.9 µM; in data set [7], 91.4 µM; in data set [11], 4.6 µM. Moreover, the figures for the Imax in data set [3] and in data set [11] were 85% and 95%, respectively. Moreover, the inhibition in data set [5], in data set [9] and in [12] was 40% each time. The recovery at 5 h, 10 µM in data set [6] turned out to be 77%. Besides, the half-life at 3 µM in [10] was found to be 22.5 min.

The EC50 is the midpoint of the concentration-response curve. As a reminder, the inhibition is the relative decrease from the control value, in per cent. In general, IC50 refers to the concentration that inhibits the measured activity by half. Lower therefore signals higher potency. One may read the half-life as how long it takes for the measured level to halve. Low values mean fast loss, high ones slow loss.
